These results are taken from ChEMBL document CHEMBL1201862, “PubChem BioAssay data set” (2004).

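Assay format: 96-well plates, 48-hour exposure. GI50 is the concentration that inhibits growth by half.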 Activity calls are given as the source filed them. Rule as the data show it: active = GI50 up to about 1.1 µM and inactive = higher.

Among the test systems are PC-3; OVCAR-8; HOP-92; MOLT-4; HOP-62; COLO 205; OVCAR-4; Hs-578T; A498; NCI-H23; SNB-19; U-251; UO-31; HCC 2998; SNB-75; SK-MEL-28; DU-145; SF-295; SK-MEL-5; NCI-H226.
Holding throughout (assay): inhibition of tumour cell growth, NCI panel, 48 h

`COc1ccc2c3c1OC1C(=O)C=CC4(CC2)N(C)CCC314` (stereo not drawn): the GI50 is 21.7 µM (inactive) with PC-3; 22.5 µM (inactive) in the experiment with OVCAR-8; 22.7 µM (inactive) in the experiment with HOP-92; 12.8 µM (inactive) in the experiment with MOLT-4; 29.6 µM (inactive) in the experiment with HOP-62; 6.19 µM (inactive) with COLO 205. The GI50 with OVCAR-4 is 24 µM (inactive); in the experiment with Hs-578T, 19.3 µM (inactive); in the experiment on A498 it was 13.9 µM (inactive); in the experiment on NCI-H23, 14 µM (inactive); in the experiment with SNB-19, 19.5 µM (inactive); in the experiment with U-251, 19.5 µM (inactive). The GI50 is 16.3 µM (inactive) in the experiment with UO-31; 13.8 µM (inactive) with HCC 2998; 28.1 µM (inactive) with SNB-75; 22.2 µM (inactive) in the experiment with SK-MEL-28; 14.3 µM (inactive) in the experiment on DU-145; 38 µM (inactive) with SF-295. In addition, the GI50 with SK-MEL-5 is 10.4 µM (inactive).

For the molecule `C=C1CCCC(C)(C)[C@H]1C/C=C1\CCOC1=O`, the GI50 in the experiment with PC-3 was 16.9 µM (inactive); with OVCAR-8, 17.7 µM (inactive); in the experiment on HOP-92 it was 12.1 µM (inactive); in the experiment on MOLT-4, 10.6 µM (inactive); with HOP-62, 17.6 µM (inactive); with COLO 205 it was 19.3 µM (inactive). The GI50 is 11 µM (inactive) in the experiment with OVCAR-4; 16.9 µM (inactive) in the experiment on Hs-578T; 17.2 µM (inactive) with A498; 14.2 µM (inactive) in the experiment on NCI-H23; 16.8 µM (inactive) in the experiment with SNB-19; 16.8 µM (inactive) in the experiment on U-251. The GI50 in the experiment with UO-31 was 16.1 µM (inactive); in the experiment on HCC 2998, 23.9 µM (inactive); in the experiment with SK-MEL-28 it was 16.1 µM (inactive); with DU-145, 13.2 µM (inactive); with SF-295 it was 17.1 µM (inactive); with SK-MEL-5 it was 10.2 µM (inactive). Further, the GI50 with NCI-H226 is 9.89 µM (inactive).

With `CC1C2(C)OC(=N)C(C#N)(C(c3ccco3)O2)C1(C#N)C#N` (stereo not drawn), the GI50 in the experiment with PC-3 was 36.6 µM (inactive); in the experiment with OVCAR-8 it was 39.9 µM (inactive); with HOP-92, 22.3 µM (inactive); in the experiment with MOLT-4, 32.2 µM (inactive); in the experiment on COLO 205 it was 13.6 µM (inactive); in the experiment with Hs-578T it was 24.9 µM (inactive). Also, the GI50 in the experiment on A498 is > 100 µM (inactive); with NCI-H23 it was 29.9 µM (inactive); in the experiment with SNB-19, 42.5 µM (inactive); in the experiment with U-251, 24.4 µM (inactive); in the experiment with UO-31, 38.5 µM (inactive); in the experiment on HCC 2998, 26.9 µM (inactive). The GI50 was 97.3 µM (inactive) with SNB-75; 18.4 µM (inactive) with SK-MEL-28; 31 µM (inactive) in the experiment with DU-145; > 100 µM (inactive) in the experiment on SF-295; 14.9 µM (inactive) in the experiment on SK-MEL-5; > 100 µM (inactive) with NCI-H226.

Take `Oc1ccc(Cc2nccc3cc(O)c(O)cc23)cc1O`: the GI50 is 52.6 µM (inactive) in the experiment on PC-3; 45.7 µM (inactive) in the experiment on OVCAR-8; 90.2 µM (inactive) in the experiment on HOP-92; 22.3 µM (inactive) with MOLT-4; 47.4 µM (inactive) with HOP-62; 21.6 µM (inactive) in the experiment with COLO 205. The GI50 with OVCAR-4 was 41.6 µM (inactive); in the experiment on Hs-578T, > 100 µM (inactive); in the experiment with A498 it was 45 µM (inactive); in the experiment with NCI-H23, 38.1 µM (inactive); with SNB-19 it was 55.2 µM (inactive); in the experiment on U-251, 37.9 µM (inactive). Further, the GI50 in the experiment on UO-31 is 40.6 µM (inactive); in the experiment with SNB-75 it was 21 µM (inactive); with SK-MEL-28 it was 79.8 µM (inactive); with DU-145, 66.5 µM (inactive); with SF-295, 37.2 µM (inactive); with SK-MEL-5, 28.8 µM (inactive). The GI50 in the experiment on NCI-H226 is 46.2 µM (inactive).

For `COc1cccc(Nc2nc(C)c([N+](=O)[O-])c(Nc3cccc(OC)c3)n2)c1`, the GI50 in the experiment with PC-3 was 12.4 µM (inactive); in the experiment with OVCAR-8, 5.74 µM (inactive); in the experiment on HOP-92 it was 6.08 µM (inactive); in the experiment with MOLT-4, 4.37 µM (inactive); in the experiment on HOP-62, 12.1 µM (inactive); with COLO 205 it was 13.9 µM (inactive). Besides, the GI50 with Hs-578T was 50.1 µM (inactive); with A498, 9.35 µM (inactive); with NCI-H23 it was 16.2 µM (inactive); in the experiment with SNB-19 it was 89.1 µM (inactive); in the experiment on U-251, 49.1 µM (inactive); in the experiment on UO-31, 9.27 µM (inactive). Also, the GI50 was 0.313 µM (active) in the experiment on SNB-75; 39.5 µM (inactive) in the experiment on SK-MEL-28; 9.79 µM (inactive) in the experiment on DU-145; < 0.01 µM (active) in the experiment on SF-295; 11.4 µM (inactive) with SK-MEL-5; 40.8 µM (inactive) with NCI-H226.

Turning to `O=C(O)C(Cc1ccccc1)N1C(=O)c2ccccc2C1=O` (stereo not drawn), the GI50 was > 100 µM (inactive) in the experiment on PC-3; > 100 µM (inactive) in the experiment on OVCAR-8; 29.2 µM (inactive) in the experiment on HOP-92; > 100 µM (inactive) in the experiment with MOLT-4; > 100 µM (inactive) in the experiment with HOP-62; > 100 µM (inactive) in the experiment with COLO 205. Besides, the GI50 with OVCAR-4, in the experiment with Hs-578T, with A498, in the experiment with NCI-H23, with SNB-19 and in the experiment with U-251 was > 100 µM (inactive) each time. The GI50 with UO-31 was > 100 µM (inactive); in the experiment on HCC 2998 it was > 100 µM (inactive); in the experiment with SK-MEL-28, 14.4 µM (inactive); in the experiment with DU-145, > 100 µM (inactive); with SF-295, > 100 µM (inactive); in the experiment with SK-MEL-5, > 100 µM (inactive). The GI50 in the experiment on NCI-H226 is > 100 µM (inactive).

With `CCCCc1ccc(NC(=N)N)cc1`, the GI50 in the experiment with PC-3 is 23.8 µM (inactive); with OVCAR-8 it was 38.4 µM (inactive); in the experiment with HOP-92, 28.7 µM (inactive); with COLO 205, 19 µM (inactive); in the experiment with OVCAR-4 it was 25.4 µM (inactive); with Hs-578T, 37.1 µM (inactive). Besides, the GI50 is 35.6 µM (inactive) with A498; 40.2 µM (inactive) in the experiment with NCI-H23; 40.6 µM (inactive) in the experiment on SNB-19; 85.3 µM (inactive) in the experiment with U-251; 33.6 µM (inactive) in the experiment on UO-31; 16.3 µM (inactive) in the experiment with HCC 2998. In addition, the GI50 with SK-MEL-28 was 58.2 µM (inactive); in the experiment with DU-145 it was 41.4 µM (inactive); in the experiment on SF-295 it was 23.9 µM (inactive); with SK-MEL-5 it was 12.9 µM (inactive); in the experiment on NCI-H226, 23.7 µM (inactive).

Turning to `O=[N+]([O-])c1ccc2c(c1)Cc1cc(/N=C/c3ccc4c(c3)OCO4)ccc1-2`, the GI50 in the experiment with PC-3, with OVCAR-8, in the experiment with HOP-92, in the experiment on MOLT-4, with HOP-62 and in the experiment on COLO 205 was > 100 µM (inactive) throughout. Moreover, the GI50 was > 100 µM (inactive) with OVCAR-4; 80 µM (inactive) with Hs-578T; > 100 µM (inactive) with A498; > 100 µM (inactive) in the experiment with NCI-H23; > 100 µM (inactive) in the experiment on SNB-19; > 100 µM (inactive) in the experiment on U-251. For the same molecule, the GI50 in the experiment on UO-31 is > 100 µM (inactive); with SNB-75, 89.7 µM (inactive); with SK-MEL-28 it was > 100 µM (inactive); in the experiment with DU-145 it was > 100 µM (inactive); with SF-295, > 100 µM (inactive); with SK-MEL-5, > 100 µM (inactive). The GI50 in the experiment on NCI-H226 is > 100 µM (inactive).

Regarding `CCCCCCCC/C=C(\Br)C(O)C(Br)Br` (stereo not drawn), the GI50 with PC-3 was 38.1 µM (inactive); with OVCAR-8, 23.4 µM (inactive); in the experiment with HOP-92 it was 20.9 µM (inactive); in the experiment with MOLT-4, > 100 µM (inactive); with HOP-62, 19.6 µM (inactive); in the experiment on COLO 205 it was 18.9 µM (inactive). In addition, the GI50 with OVCAR-4 was 20.6 µM (inactive); in the experiment with Hs-578T it was 22.8 µM (inactive); with A498, 31 µM (inactive); with NCI-H23, 22.1 µM (inactive); in the experiment with SNB-19, 31.8 µM (inactive); in the experiment with U-251, 30 µM (inactive). Further, the GI50 was 19.4 µM (inactive) with UO-31; 18.8 µM (inactive) with HCC 2998; 36 µM (inactive) with SNB-75; 29.2 µM (inactive) with SK-MEL-28; 38.6 µM (inactive) in the experiment with DU-145; 18 µM (inactive) in the experiment with SF-295. Also, the GI50 in the experiment on SK-MEL-5 is 17.9 µM (inactive).

On to `O=S(=O)(O)n1ccnc1`, for which the GI50 with PC-3, in the experiment on OVCAR-8, with HOP-92, with MOLT-4, in the experiment with HOP-62 and in the experiment with COLO 205 was > 100 µM (inactive) in each case. For the same molecule, the GI50 in the experiment with OVCAR-4, in the experiment on Hs-578T, with A498, in the experiment on NCI-H23, in the experiment with SNB-19 and with U-251 was > 100 µM (inactive) throughout. Besides, the GI50 in the experiment with UO-31, in the experiment with SNB-75, in the experiment with SK-MEL-28, with DU-145, in the experiment on SF-295 and in the experiment with SK-MEL-5 was > 100 µM (inactive) each time. The GI50 with NCI-H226 is > 100 µM (inactive).

In the case of `CC1=NN(c2nc(N)nc(-c3ccccc3S(N)(=O)=O)n2)C(C)(C)C1`, the GI50 in the experiment with PC-3 is 16.7 µM (inactive); with OVCAR-8, 16 µM (inactive); in the experiment with HOP-92, > 100 µM (inactive); with MOLT-4, 5.19 µM (inactive); in the experiment with HOP-62, 13 µM (inactive); with OVCAR-4, 13.2 µM (inactive). Also, the GI50 in the experiment on Hs-578T was 74.1 µM (inactive); in the experiment with A498, 22.4 µM (inactive); in the experiment on NCI-H23 it was 20.1 µM (inactive); in the experiment with U-251, 8.51 µM (inactive); in the experiment on UO-31, 3.92 µM (inactive); in the experiment on HCC 2998 it was 13.8 µM (inactive). The GI50 in the experiment on SK-MEL-28 is 27.9 µM (inactive); with DU-145, 7.38 µM (inactive); in the experiment on SF-295, 5.64 µM (inactive); with SK-MEL-5, 18.1 µM (inactive); in the experiment with NCI-H226, 9.2 µM (inactive).
